Assay results as given in patent US20230146038A1, “DIMERIZATION ASSAY” (The University of Bath, priority 2020, published 2023).

B1: basic-cJun (other)
chain: MRIKAERKRMRNRIAASKCRKRKLERIARLEEKVKTLKAQNYELASTANMLREQVAQLGAPHHHHHH
notes: also called AP-1 component; p230d-basic-cJun

Columns and labels:
[1] = test system: BL21 GOLD cells; assay: Aβ1-42 dimerization assay (colony growth); assay type: cell-based, E. coli; conditions: for colonies grown on test plates: M9 minimal media with Tmp and IPTG; for colonies grown on negative control plates: M9 minimal media with Tmp; for No. of colonies (CFU): 48-hour incubation
Text: Schematic illustrating general principles of using the TBS assay to screen for inhibitors of the initial dimerization event of Aβ1-42. In bacterial cells, endogenous DHFR can be inhibited using the antibiotic trimethoprim, making cells reliant on the modified, exogenous DHFR (top panel). In this setting, if AP-1 binds to the TRE sites in the DHFR, transcription is blocked and no functional DHFR enzyme is produced, resulting in cell death (middle panel). By attaching this basic cJun region to Aβ1-42, a functional DNA binder will be created if two Aβ1-42 peptides dimerize. In the absence of an inhibitor, basic-Aβ1-42 dimerization would lead to blocking of the DHFR gene transcription, resulting in cell death (lower left hand panel). Only cells treated with a successful Aβ1-42 dimerization inhibitor would produce DHFR and so survive, allowing selection for potential therapeutics for treating Alzheimer's Disease (lower right hand panel).
BL21 GOLD cells stably expressing a pREP4 plasmid containing lac inhibitor […] gene were used for the dimerization assay, so that the lac operon could be controlled. Cells were transformed with p300d plasmid containing DHFR with 15 TRE sites under control of the lac operon (described in Example 1), and either a p230d containing Aβ1-42 or constructed basic-Aβ1-42.
BL21 from the 100 μL plates were scraped into LB and selecting antibiotics and grown to an OD600 of 0.5. 100 μL of culture was plated onto positive control, negative control and test plates, as described in Table 3 below.
A covering of cells was seen on both positive control plates, showing that BL21 cells were not affected by scraping and re-plating. Tmp was used to inhibit the endogenous, E. coli DHFR enzyme. […] Two basic-Aβ1-42 expressing colonies and one Aβ1-42 colony grew on these negative control plates. Test plates contained IPTG to bind to lac repressor protein and allow expression of the modified DHFR in the bacteria. There were 63 Aβ1-42 expressing BL21 colonies formed on these plates, which confirmed that the modified DHFR gene allows cells to grow on minimal media. Importantly, only 2 basic-Aβ1-42 expressing colonies grew on test plates, which was consistent with levels of background growth seen on negative control plates.

[2] = biological target: the molecule itself; assay: TBS cell survival assay in E. coli, colony formation on M9 agar
Method: Cells were grown under non-selective conditions (i.e. LB/LB agar) containing Cm/Amp/Kan up until the time of the Assay. During TBS Selection Cells are grown in M9 minimal media (Agar or Broth) in the presence of Cm/Amp/Kan, as well as Tmp (to inhibit the bacterial copies of DHFR) and IPTG (to induce expression of mDHFR and bZIP proteins). During Assay selection, media-lacking ITPG is used to serve as a negative control to ensure that cell survival is exclusively driven by the loss on interaction between bZIP target protein and the consensus sequences located within the mDHFR gene.

[3] = test system: TRE's introduced within the mDHFR gene; assay: Transcription-Block Survival (TBS) assay with basic-cJun; assay type: cell-based, E. coli; conditions: M9 minimal media with Tmp and IPTG, protein overexpressed on second plasmid with mDHFR containing 15 TREs
Text: Fifteen TREs have been introduced into the mDHFR gene. A) The changes to the DNA sequence result in a fully active protein that expresses, folds, and confers survival in M9 minimal media using trimethoprim (TMP) to inhibit bacterial DHFR. […] Expressing mDHFR with IPTG (right hand side plates), generates colonies in A) but not B).
It was next necessary to establish that introduction of an AP-1 component (in this case basic-cJun) would result in binding to the 15 TRE's introduced within the mDHFR gene and therefore failure of the gene to be transcribed.
Three plasmids were used for this assay. These are i) p300-mDHFR (Cm; SEQ ID NO: 42) to express the […] sequence containing mDHFR, which is under control of the lac-operon; ii) p230d-basic-cJun (Amp; SEQ ID NO: 43) which is also under control of the lac-operon; iii) pREP4 (Kan; SEQ ID NO: 44) to express the lac repressor.
Cells were grown under non-selective conditions (i.e. LB/LB agar) containing Cm/Amp/Kan up until the time of the Assay. During TBS Selection Cells are grown in M9 minimal media (Agar or Broth) in the presence of Cm/Amp/Kan, as well as Tmp (to inhibit the bacterial copies of DHFR) and IPTG (to induce expression of mDHFR and bZIP proteins). […]

[4] = Negative control plate: M9 minimal agar, 3.4 μM Tmp, no IPTG
[5] = Positive control plate: LB agar, Cm, Kan and Amp
[6] = Test plate: M9 minimal agar, 3.4 μM Tmp, 1 mM IPTG

Molecule | colonies grown on test plates [1] | colonies grown on negative control plates ([1]; no IPTG) | No. of colonies (CFU) [1, 4] | No. of colonies (CFU) [1, 5] | No. of colonies (CFU) [1, 6] | binding result [2] | bacterial colony formation in minimal media [3] | bacterial colony formation in minimal media ([3]; listed as Basic-cJun)
Aβ1-42: amyloid-β peptide having 42 amino acids (SEQ ID NO: 49), expressed without the basic cJun region [reference compound] | 63 colonies | one | 1 CFU | Covered | 63 CFU | – | – | –
basic-Aβ1-42: fusion protein of the basic cJun region and Aβ1-42 (SEQ ID NO: 51) | 2 colonies | Two | 2 CFU | Covered | 2 CFU | – | – | –
B1 | – | – | – | – | – | binds | complete loss of bacterial colonies | no colonies grow
